Test results as given in patent publication US20250064773A1, “TARGETING ERO1 ALPHA WITH AURONE DERIVATIVES” (West Virginia University Board of Governors on behalf of …, priority 2021, published 2025).

Molecular target: LSD-1 (Homo sapiens, UniProt O60341)
Assay: Cellular thermal shift assay (CETSA) in PC-9 cells, LSD-1
Type: cell-based
Details: 100 μM
Description: To date activity of T151742 towards other flavoenzymes has not been identified at this time. We utilized the Cellular Thermal Shift Assay (CETSA) to determine target engagement of T151742 in vitro using the non-small cell lung cancer (NSCLC) cell line PC-9. The EGFR driven PC-9 cell line was chosen as new treatment strategies are needed in EGFR driven NSCLC as most patients relapse and become resistant to current targeted therapies with development of further mutations such as T790M, C797S as well as emergence of EGFR independent tumors^42, 43. […] First, we determined the aggregation temperature (Tagg) of ERO1α, ERO1β, and LSD-1, which are all FAD dependent enzymes and potential in vitro targets of T15742. […]
Upon addition of T151742, Tagg was quantified for ERO1α, ERO1β, and LSD-1. Quantification of the average of n=3 independent experiments based on western blot analysis for ERO1α, ERO1β, and LSD-1. […] Cellular viability was determined by MTT assay. n=3 independent experiments performed in quadruplicates. ****p<0.0001; by two-way ANOVA.
Cell Lines: PC-9 cell line used was obtained from Sigma Aldrich and grown in RPMI 1640 medium with 10% fetal bovine serum and 1% penicillin/streptomycin. […] Plate was then read on the BioTek Cytation 5 at 530/590 nm. […]

With `CN(C)c1ccc(/C=C2\Oc3cc(O)ccc3C2=O)cc1` [Compound T151742] the “change of Tagg for LSD-1” value was “did not change”.
